{
  "source": "PubChem BioAssay AID1963450",
  "about": "(Molecular Pharmacology Branch, DTP, NCI, 2024)",
  "tested_on": "556581-035-R-J1-PDC complex spheroid growth",
  "test": "Anticancer human tumor 556581-035-R-J1-PDC patient-derived ovarian carcinoma cell line growth inhibition [Asc]",
  "settings": "for pIC50: curve of first compound; for viability, T/C: stronger effect = lower value",
  "procedure": "Multicellular complex tumor spheroid response to apoptosis pathway targeting inhibitors Alrizomadlin, Pelcitoclax, and Dasminapant in combination with a variety of drugs and investigational agents in selected tumor cell lines\nThe MDM2 inhibitor alrizomadlin, the Bcl-2/Bcl-xL inhibitor pelcitoclax, and the IAPs inhibitor dasminapant were evaluated both individually and in combination with standard of care and investigational anticancer small molecules within a complex spheroid model of solid tumors. . Complex spheroids include a stromal component modeled by human endothelial cells (HUVEC) and fibroblasts modeled by human mesenchymal stem cells (MSCs). The concentration ranges selected for each drug and investigational agent were based upon clinically achievable concentrations if the clinical Cmax of the agent was known.\nCompounds. The drugs and investigational agents: alrizomadlin (APG-115; NSC831270), pelcitoclax (APG-1252; NSC835773), dasminapant (APG-1387;NSC834197), TAK-243 (NSC785004), copanlisib (NSC809693), olaparib (NSC753686), talazoparib (NSC767125), cobimetinib (NSC 768068), eltanexor (KPT-8602, NSC 794443), abemaciclib (NSC 768073), sotorasib (NSC818433), adagrasib (NSC 831453), MRTX-1133 (NSC 836407), Iadademestat (ORY1001, NSC 806812), and RMC-4630 (NSC839698), were obtained from the NCI Developmental Therapeutics Program Chemical Repository. The FDA-approved anticancer drug set is available from the Developmental Therapeutics Program at https://dtp.cancer.gov/organization/dscb/obtaining/available plates.htm. […] The stock solutions were prepared in dimethyl sulfoxide (DMSO, Sigma-Aldrich, St. Louis, MO, cat. D2650) at 800-fold the tested concentration and stored at -70 degrees C prior to their use. All drugs and investigational agents were tested over a range starting from a high concentration at or near the clinical Cmax and decreasing in half-log increments. If the clinical Cmax for an agent had not been determined, the highest concentration tested was 10 microM.\nThe patient-derived cancer (PDC) cell lines include five colon adenocarcinomas: 186277-243-T-J2-PDC, 616215-338-R-J1-PDC, 439559-082-T-J2-PDC, 463943-066-T-J2-PDC, and 519858-162-T-J1-PDC; three pancreatic carcinomas: 323965-272-R-J2-PDC, 521955-158-R6-J3-PDC, and 521955-158-R2-J5-PDC; two uterine sarcomas: 327498-152-R-J2-PDC and 993429-296-R-J1-PDC; two rhabdomyosarcomas: 755483-174-R-J1-PDC and 772245-204-R-J1-PDC; two soft tissue sarcomas: 126254-015-R-J1-PDC and 494315-158-R-J1-PDC; two malignant fibrous histiocytomas: 317291-083-R-J1-PDC and 596521-263-R-J1-PDC; two breast carcinomas: 171881-019-R-J1-PDC and 885512-296-R-J2-PDC; and one ovarian carcinoma: 6556581-035-R-J-PDC were obtained from the NCI PDMR, (https://pdmr.cancer.gov). The established cell lines HSSY-2 synovial sarcoma (RRID:CVCL 8719), SYO-1 synovial sarcoma (RRID:CVCL_7146), MPNST malignant peripheral neural sheath tumor were obtained from the Sloan Kettering Institute. The following established cell lines were purchased from the American Type Culture Collection (ATCC, Manassas, VA), Sor the received from the NCI repository:, PANC-1 pancreatic carcinoma (CRL-1469, RRID:CVCL_0480), OVCAR-5 ovarian carcinoma (RRID:CVCL_1628), OVCAR-8 ovarian carcinoma (RRID:CVCL_1629), , MCF-7 breast carcinoma (CRL-12584, RRID:CVCL_0031), MDA-MB-231 breast carcinoma (CRL-12532, RRID:CVCL_0062), NCI-H1876 small cell lung carcinoma (CRL-5902, RRID:CVCL_1503), NCI-H510A small cell lung carcinoma (HTB-184, RRID:CVCL_1565), NCI-H1417 (CRL-5869, RRID:CVCL_1469), and NCI-H196 small cell lung carcinoma (CRL-5823, RRID:CVCL_1509). Dr. Peter Houghton (Greehey Children's Cancer Research Institute, University of Texas Health Science Center, San Antonio, TX) provided Rh-18 rhabdomyosarcoma (RRID:CVCL_1659). Pooled donor human umbilical vein endothelial cells (HUVEC, Lonza, cat. CC-2519) and human mesenchymal stem cells (hMSC, Lonza, cat. PT-2501) were purchased from Lonza (Walkersville, MD).\nCell Culture. […]",
  "note": "pIC50: −log10 of the molar value.",
  "data": [
    {"compound": "Cn1ncnc1[C@H]1c2n[nH]c(=O)c3cc(F)cc(c23)N[C@@H]1c1ccc(F)cc1", "note": "+ CCN1C(C(=O)NC23CCC(C(=O)O)(CC2)CC3)C(c2cccc(Cl)c2F)C2(C(=O)Nc3cc(Cl)ccc32)C12CCCCC2;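 note: spheroids exposed to agents for 7 days before viability read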", "values": [
      {"measurement": "pIC50", "setting": "second compound 0.03 µM", "value": "< 7.00"},
      {"measurement": "pIC50", "setting": "second compound 0.0949 µM", "value": "< 7.00"},
      {"measurement": "pIC50", "setting": "second compound 0.3 µM", "value": "< 7.00"},
      {"measurement": "pIC50", "setting": "second compound 0.949 µM", "value": "< 7.00"},
      {"measurement": "pIC50", "setting": "second compound 3 µM", "value": "< 7.00"},
      {"measurement": "viability, T/C", "setting": "second compound 0.03 µM, first compound 0.000316 µM", "value": 110, "unit": "%"},
      {"measurement": "viability, T/C", "setting": "second compound 0.03 µM, first compound 0.001 µM", "value": 102, "unit": "%"},
      {"measurement": "viability, T/C", "setting": "second compound 0.03 µM, first compound 0.00316 µM", "value": 94.4, "unit": "%"},
      {"measurement": "viability, T/C", "setting": "second compound 0.03 µM, first compound 0.01 µM", "value": 87.7, "unit": "%"},
      {"measurement": "viability, T/C", "setting": "second compound 0.03 µM, first compound 0.0316 µM", "value": 94.3, "unit": "%"},
      {"measurement": "viability, T/C", "setting": "second compound 0.03 µM, first compound 0.1 µM", "value": 95.2, "unit": "%"},
      {"measurement": "viability, T/C", "setting": "second compound 0.0949 µM, first compound 0.000316 µM", "value": 105, "unit": "%"},
      {"measurement": "viability, T/C", "setting": "second compound 0.0949 µM, first compound 0.001 µM", "value": 100, "unit": "%"},
      {"measurement": "viability, T/C", "setting": "second compound 0.0949 µM, first compound 0.00316 µM", "value": 116, "unit": "%"},
      {"measurement": "viability, T/C", "setting": "second compound 0.0949 µM, first compound 0.01 µM", "value": 96.1, "unit": "%"},
      {"measurement": "viability, T/C", "setting": "second compound 0.0949 µM, first compound 0.0316 µM", "value": 94.9, "unit": "%"},
      {"measurement": "viability, T/C", "setting": "second compound 0.0949 µM, first compound 0.1 µM", "value": 92.3, "unit": "%"},
      {"measurement": "viability, T/C", "setting": "second compound 0.3 µM, first compound 0.000316 µM", "value": 102, "unit": "%"},
      {"measurement": "viability, T/C", "setting": "second compound 0.3 µM, first compound 0.001 µM", "value": 130, "unit": "%"},
      {"measurement": "viability, T/C", "setting": "second compound 0.3 µM, first compound 0.00316 µM", "value": 97.2, "unit": "%"},
      {"measurement": "viability, T/C", "setting": "second compound 0.3 µM, first compound 0.01 µM", "value": 107, "unit": "%"},
      {"measurement": "viability, T/C", "setting": "second compound 0.3 µM, first compound 0.0316 µM", "value": 87.1, "unit": "%"},
      {"measurement": "viability, T/C", "setting": "second compound 0.3 µM, first compound 0.1 µM", "value": 83.4, "unit": "%"},
      {"measurement": "viability, T/C", "setting": "second compound 0.949 µM, first compound 0.000316 µM", "value": 109, "unit": "%"},
      {"measurement": "viability, T/C", "setting": "second compound 0.949 µM, first compound 0.001 µM", "value": 93.8, "unit": "%"},
      {"measurement": "viability, T/C", "setting": "second compound 0.949 µM, first compound 0.00316 µM", "value": 102, "unit": "%"},
      {"measurement": "viability, T/C", "setting": "second compound 0.949 µM, first compound 0.01 µM", "value": 96.6, "unit": "%"},
      {"measurement": "viability, T/C", "setting": "second compound 0.949 µM, first compound 0.0316 µM", "value": 90.6, "unit": "%"},
      {"measurement": "viability, T/C", "setting": "second compound 0.949 µM, first compound 0.1 µM", "value": 92.7, "unit": "%"},
      {"measurement": "viability, T/C", "setting": "second compound 3 µM, first compound 0.000316 µM", "value": 97, "unit": "%"},
      {"measurement": "viability, T/C", "setting": "second compound 3 µM, first compound 0.001 µM", "value": 94.8, "unit": "%"},
      {"measurement": "viability, T/C", "setting": "second compound 3 µM, first compound 0.00316 µM", "value": 78.7, "unit": "%"},
      {"measurement": "viability, T/C", "setting": "second compound 3 µM, first compound 0.01 µM", "value": 87, "unit": "%"},
      {"measurement": "viability, T/C", "setting": "second compound 3 µM, first compound 0.0316 µM", "value": 84, "unit": "%"},
      {"measurement": "viability, T/C", "setting": "second compound 3 µM, first compound 0.1 µM", "value": 86.8, "unit": "%"}
    ]}
  ]
}
